In patent publication US3966715A, “Herbicidal agents” (Bayer Aktiengesellschaft, priority 1966, dated 1976):

Columns and labels:
Format in all cases: in vivo
Wheat [1] = assay: Pre-emergence test, wheat; settings: three weeks
Protocol: (§1) Solvent: 5 parts by weight acetone
(§2) 1 part by weight benzyloxypolyglycol ether
(§3) To produce a suitable preparation of the particular active compound, 1 part by weight of such active compound is mixed with the stated amount of solvent, the stated amount of emulsifier is then added and the resulting concentrate is thereafter diluted with water to the desired final concentration.
(§4) Seeds of the test plants are sown in normal soil and, after 24 hours, watered with the preparation of the given active compound. It is expedient to keep constant the amount of water per unit area. The concentration of the particular active compound in the preparation is of no importance, only the amount of active compound applied per unit area being decisive. After three weeks, the degree of damage to the test plants is determined and characterized by the values 0-5, which have the following meaning:
(§5) The procedure of Example 1 is repeated, and the particular active compounds tested, the amounts applied, and the results obtained can be seen from the following Table 1D: […]

Echinochloa [2] = assay: Post-emergence test, Echinochloa; settings: three weeks
Protocol: as §1, §2, §3
(§6) Test plants which have a height of about 5--15 cm. are sprayed with the preparation of the given active compound until just dew moist. After three weeks, the degree of damage to the plants is determined and characterized by the values 0-5, which have the following meaning:
(§7) The procedure of Example 2 is repeated, and the particular active compounds tested, and amounts applied, and the results obtained can be seen from the following Table 2E: […]

Wheat [3] = assay: Post-emergence test, wheat; settings: three weeks
Protocol: as §1, §2, §3, §6, §7

Oats [4] = assay: Pre-emergence test, oats; settings: three weeks
Protocol: as §1, §2, §3, §4, §5

Oats [5] = assay: Post-emergence test, oats; settings: three weeks
Protocol: as §1, §2, §3, §6, §7

Cotton = assay: Pre-emergence test, cotton; settings: three weeks
Protocol: as §1, §2, §3, §4, §5

Echinochloa [6] = assay: Pre-emergence test, Echinochloa; settings: 1.25 kg/hectare, three weeks
Protocol: as §1, §2, §3, §4, §5

Stellaria = assay: Post-emergence test, Stellaria; settings: three weeks
Protocol: as §1, §2, §3, §6, §7

CCC=Nn1c(SC)nnc(C(C)C)c1=O [Compound 216, 3-methylthio-4-(n-propylidene-amino)-6-isopropyl-1,2,4-triazine-5-one]
degree of damage, Wheat (Wheat [1]; 1.25 kg/hectare): 4-5

CSc1nnc(C(C)C)c(=O)n1N=CC1CCCCC1 [Compound 197, 3-methylthio-4-(hexahydrobenzylidene-amino)-6-isopropyl-1,2,4-triazine-5-one]
degree of damage, Wheat (Wheat [1]; 1.25 kg/hectare): 4-5
degree of damage, Echinochloa (Echinochloa [2]; 1.2 Kg/hectare): 4-5
degree of damage, Wheat (Wheat [3]; 1.2 Kg/hectare): 4-5

CCNc1nnc(-c2ccccc2)c(=O)n1N [Compound 7, 3-ethylamino-4-amino-6-phenyl-1,2,4-triazine-5-one]
degree of damage, Oats (Oats [4]; 2.5 kg/hectare): 4-5

CSc1nnc(C(C)(C)C)c(=O)n1NC(O)C(Cl)(Cl)Cl (stereo not drawn) [Compound 192, 3-methylthio-4-(β-trichloro-α-hydroxy-ethyl)-amino-6-tert.-butyl-1,2,4-triazine-5-one]
degree of damage, Oats (Oats [4]; 1.25 kg/hectare): 4-5
degree of damage, Oats (Oats [4]; 2.5 kg/hectare): 4-5
degree of damage, Oats (Oats [5]; 2.4 Kg/hectare): 4-5
degree of damage, Cotton (Cotton; 1.25 kg/hectare): 4-5
degree of damage, Cotton (Cotton; 2.5 kg/hectare): 4-5

CCCCNc1nnc(C2CCCCC2)c(=O)n1N [Compound 182, 3-n-butylamino-4-amino-6-cyclohexyl-1,2,4-triazine-5-one]
degree of damage, Wheat (Wheat [1]; 40 Kg/hectare): 4-5
degree of damage, Oats (Oats [4]; 40 Kg/hectare): 4-5
degree of damage, Echinochloa (Echinochloa [2]; 10 Kg/hectare): 4-5

CCCc1nnc(SC)n(N)c1=O [Compound 153, 3-methylthio-4-amino-6-n-propyl-1,2,4-triazine-5-one]
degree of damage, Oats (Oats [4]; 1.25 kg/hectare): 4-5
degree of damage, Oats (Oats [4]; 2.5 kg/hectare): 4-5
degree of damage, Oats (Oats [5]; 2.4 Kg/hectare): 4-5
degree of damage, Cotton (Cotton; 1.25 kg/hectare): 4-5

CN(C)c1nnc(-c2ccccc2)c(=O)n1N [Compound 16, 3-dimethylamino-4-amino-6-phenyl-1,2,4-triazine-5-one]
degree of damage, Wheat (Wheat [1]; 1.25 kg/hectare): 4-5
degree of damage, Wheat (Wheat [1]; 2.5 kg/hectare): 4-5
degree of damage, Wheat (Wheat [1]; 5 kg/hectare): 4-5
degree of damage, Wheat (Wheat [3]; 1.2 Kg/hectare): 4-5
degree of damage, Echinochloa (Echinochloa [6]): 4-5
degree of damage, Cotton (Cotton; 2.5 kg/hectare): 4-5

CSc1nnc(CCC(C)C)c(=O)n1N [Compound 23, 3-methylthio-4-amino-6-isopentyl-1,2,4-triazine-5-one]
degree of damage, Wheat (Wheat [3]; 2.4 Kg/hectare): 4-5

CSc1nnc(C2CCCCC2)c(=O)n1N=CC1CCCCC1 [Compound 228, 3-methylthio-4-(hexahydrobenzylidene-amino)-6-cyclohexyl-1,2,4-triazine-5-one]
degree of damage, Wheat (Wheat [1]; 5 kg/hectare): 4-5
degree of damage, Oats (Oats [4]; 5 kg/hectare): 4-5
degree of damage, Echinochloa (Echinochloa [2]; 0.6 Kg/hectare): 4-5
degree of damage, Oats (Oats [5]; 1.2 Kg/hectare): 4-5
degree of damage, Wheat (Wheat [3]; 0.6 Kg/hectare): 4-5
degree of damage, Wheat (Wheat [3]; 1.2 Kg/hectare): 4-5

CCCC=Nn1c(SC)nnc(C(C)C)c1=O [Compound 217, 3-methylthio-4-(n-butylidene-amino)-6-isopropyl-1,2,4-triazine-5-one]
degree of damage, Wheat (Wheat [1]; 1.25 kg/hectare): 4-5

CSc1nnc(C2CCCCC2)c(=O)n1N=CC(C)C [Compound 229, 3-methylthio-4-(isobutylidene-amino)-6-cyclohexyl-1,2,4-triazine-5-one]
degree of damage, Wheat (Wheat [1]; 5 kg/hectare): 4-5
degree of damage, Oats (Oats [4]; 2.5 kg/hectare): 4-5
degree of damage, Echinochloa (Echinochloa [6]): 4-5
degree of damage, Cotton (Cotton; 5 kg/hectare): 4-5

CCc1nnc(SC)n(N)c1=O [Compound 22, 3-methylthio-4-amino-6-ethyl-1,2,4-triazine-5-one]
degree of damage, Wheat (Wheat [1]; 5 kg/hectare): 4-5
degree of damage, Oats (Oats [5]; 1.2 Kg/hectare): 4-5
degree of damage, Oats (Oats [5]; 2.4 Kg/hectare): 4-5

CNc1nnc(C(C)(C)C)c(=O)n1N=C(C)C [Compound 232, 3-methylamino-4-(prop-2'-ylidene-amino)-6-tert.-butyl-1,2,4-triazine-5-one]
degree of damage, Oats (Oats [4]; 1.25 kg/hectare): 4-5
degree of damage, Wheat (Wheat [3]; 1.2 Kg/hectare): 4-5

CSc1nnc(C(C)(C)C)c(=O)n1N=CC(C)C [Compound 215, 3-methylthio-4-(isobutylidene-amino)-6-tert.-butyl-1,2,4-triazine-5-one]
degree of damage, Wheat (Wheat [3]; 1.2 Kg/hectare): 4-5

CSc1nnc(C(C)C)c(=O)n1N=Cc1ccc(Cl)cc1 [Compound 201, 3-methylthio-4-(4'-chloro-benzylidene-amino)-6-isopropyl-1,2,4-triazine-5-one]
degree of damage, Wheat (Wheat [1]; 1.25 kg/hectare): 4-5
degree of damage, Echinochloa (Echinochloa [2]; 1.2 Kg/hectare): 4-5
degree of damage, Stellaria (Stellaria; 1.2 Kg/hectare): 4-5

CSc1nnc(C(C)C)c(=O)n1N=Cc1ccccc1C [Compound 206, 3-methylthio-4-(2'-methyl-benzylidene-amino)-6-isopropyl-1,2,4-triazine-5-one]
degree of damage, Oats (Oats [5]; 2.4 Kg/hectare): 4-5
degree of damage, Wheat (Wheat [3]; 1.2 Kg/hectare): 3-4
degree of damage, Stellaria (Stellaria; 0.6 Kg/hectare): 4-5
degree of damage, Cotton (Cotton; 1.25 kg/hectare): 4-5

C#CCSc1nnc(C(C)C)c(=O)n1N [Compound 158, 3-propargylthio-4-amino-6-isopropyl-1,2,4-triazine-5-one]
degree of damage, Stellaria (Stellaria; 1.2 Kg/hectare): 4-5

CSc1nnc(C(C)C)c(=O)n1N=Cc1ccco1 [Compound 203, 3-methylthio-4-(furfur-2'-ylidene-amino)-6-isopropyl-1,2,4-triazine-5-one]
degree of damage, Wheat (Wheat [3]; 1.2 Kg/hectare): 4-5
degree of damage, Stellaria (Stellaria; 2.4 Kg/hectare): 4-5
degree of damage, Cotton (Cotton; 1.25 kg/hectare): 4-5

CSc1nnc(C(C)(C)C)c(=O)n1N=C(C)C [Compound 220, 3-methylthio-4-(prop-2'-ylidene-amino)-6-tert.-butyl-1,2,4-triazine-5-one]
degree of damage, Wheat (Wheat [1]; 1.25 kg/hectare): 4-5

CNn1c(OC)nnc(-c2ccccc2)c1=O [Compound 234, 3-methoxy-4-methylamino-6-phenyl-1,2,4-triazine-5-one]
degree of damage, Oats (Oats [4]; 5 kg/hectare): 4-5

CSc1nnc(C(C)C)c(=O)n1N=Cc1ccc(C)cc1 [Compound 213, 3-methylthio-4-(4'-methyl-benzylidene-amino)-6-isopropyl-1,2,4-triazine-5-one]
degree of damage, Oats (Oats [4]; 1.25 kg/hectare): 4-5
degree of damage, Oats (Oats [4]; 2.5 kg/hectare): 4-5
degree of damage, Echinochloa (Echinochloa [2]; 0.6 Kg/hectare): 4-5
degree of damage, Oats (Oats [5]; 1.2 Kg/hectare): 3-4
degree of damage, Oats (Oats [5]; 2.4 Kg/hectare): 4-5
degree of damage, Wheat (Wheat [3]; 0.6 Kg/hectare): 2-3
degree of damage, Wheat (Wheat [3]; 1.2 Kg/hectare): 3-4
degree of damage, Stellaria (Stellaria; 0.6 Kg/hectare): 4-5
degree of damage, Echinochloa (Echinochloa [6]): 4-5
degree of damage, Cotton (Cotton; 2.5 kg/hectare): 4-5
degree of damage, Cotton (Cotton; 5 kg/hectare): 4-5

CSc1nnc(C(C)C)c(=O)n1N=Cc1ccccc1 [Compound 198, 3-methylthio-4-(benzylidene-amino)-6-isopropyl-1,2,4-trizaine-5-one]
degree of damage, Wheat (Wheat [1]; 1.25 kg/hectare): 4-5
degree of damage, Oats (Oats [5]; 0.6 Kg/hectare): 3-4
degree of damage, Oats (Oats [5]; 2.4 Kg/hectare): 4-5
degree of damage, Stellaria (Stellaria; 0.6 Kg/hectare): 4-5

CSc1nnc(C(C)C)c(=O)n1N=Cc1ccc([N+](=O)[O-])cc1 [Compound 210, 3-methylthio-4-(4'-nitro-benzylidene-amino)-6-isopropyl-1,2,4-triazine-5-one]
degree of damage, Oats (Oats [4]; 2.5 kg/hectare): 4-5
degree of damage, Oats (Oats [4]; 5 kg/hectare): 4-5
degree of damage, Cotton (Cotton; 2.5 kg/hectare): 4-5
degree of damage, Cotton (Cotton; 5 kg/hectare): 4-5

CCSc1nnc(C(C)C)c(=O)n1N [Compound 148, 3-ethylthio-4-amino-6-isopropyl-1,2,4-triazine-5-one]
degree of damage, Wheat (Wheat [1]; 1.25 kg/hectare): 3-4
degree of damage, Oats (Oats [4]; 1.25 kg/hectare): 4-5
degree of damage, Oats (Oats [4]; 2.5 kg/hectare): 4-5
degree of damage, Oats (Oats [4]; 5 kg/hectare): 4-5
degree of damage, Echinochloa (Echinochloa [2]; 0.6 Kg/hectare): 4-5
degree of damage, Echinochloa (Echinochloa [2]; 1.2 Kg/hectare): 4-5
degree of damage, Wheat (Wheat [3]; 2.4 Kg/hectare): 4-5
degree of damage, Stellaria (Stellaria; 2.4 Kg/hectare): 4-5
degree of damage, Cotton (Cotton; 2.5 kg/hectare): 4-5
degree of damage, Cotton (Cotton; 5 kg/hectare): 4-5

CSc1nnc(C2CCCCC2)c(=O)n1N=C(C)C [Compound 224, 3-methylthio-4-(prop-2'-ylidene-amino)-6-cyclohexyl-1,2,4-triazine-5-one]
degree of damage, Wheat (Wheat [1]; 1.25 kg/hectare): 4-5
degree of damage, Oats (Oats [5]; 1.2 Kg/hectare): 4-5
degree of damage, Wheat (Wheat [3]; 1.2 Kg/hectare): 4-5
degree of damage, Wheat (Wheat [3]; 2.4 Kg/hectare): 4-5

CCCNc1nnc(C(C)C)c(=O)n1N [Compound 178, 3-n-propylamino-4-amino-6-isopropyl-1,2,4-triazine-5-one]
degree of damage, Wheat (Wheat [1]; 5 kg/hectare): 2-3

CSc1nnc(CC(C)C)c(=O)n1N [Compound 11, 3-methylthio-4-amino-6-isobutyl-1,2,4-triazine-5-one]
degree of damage, Wheat (Wheat [3]; 2.4 Kg/hectare): 4-5

CSc1nnc(C2CCCCC2)c(=O)n1N=Cc1ccccc1 [Compound 225, 3-methylthio-4-(benzylidene-amino)-6-cyclohexyl-1,2,4-triazine-5-one]
degree of damage, Echinochloa (Echinochloa [2]; 0.6 Kg/hectare): 4-5
degree of damage, Oats (Oats [5]; 2.4 Kg/hectare): 4-5
degree of damage, Wheat (Wheat [3]; 0.6 Kg/hectare): 3-4
degree of damage, Echinochloa (Echinochloa [6]): 4-5
degree of damage, Cotton (Cotton; 2.5 kg/hectare): 4-5

CNc1nnc(C(C)(C)C)c(=O)n1N [Compound 175, 3-methylamino-4-amino-6-tert.-butyl-1,2,4-triazine-5-one]
degree of damage, Echinochloa (Echinochloa [2]; 0.6 Kg/hectare): 4-5
degree of damage, Echinochloa (Echinochloa [2]; 1.2 Kg/hectare): 4-5
degree of damage, Oats (Oats [5]; 0.6 Kg/hectare): 4-5
degree of damage, Oats (Oats [5]; 1.2 Kg/hectare): 4-5
degree of damage, Wheat (Wheat [3]; 2.4 Kg/hectare): 4-5

CCNc1nnc(C(C)(C)C)c(=O)n1N [Compound 176, 3-ethylamino-4-amino-6-tert.-butyl-1,2,4-triazine-5-one]
degree of damage, Echinochloa (Echinochloa [2]; 2.4 Kg/hectare): 4-5
degree of damage, Stellaria (Stellaria; 0.6 Kg/hectare): 4-5

CSc1nnc(C(C)C)c(=O)n1N=C1CCCCC1 [Compound 204, 3-methylthio-4-(cyclohexylidene-amino)-6-isopropyl-1,2,4-triazine-5-one]
degree of damage, Wheat (Wheat [1]; 1.25 kg/hectare): 4-5
degree of damage, Stellaria (Stellaria; 0.6 Kg/hectare): 4-5
